Data set [1] in a line: Inhibition of NF-kappaB-mediated gene transcription expressed in TNF-alpha-stimulated human HeLa cells for 30 mins before TNFalpha challenge measured after 8 hrs by steady-glo luciferase reporter gene assay. In kind it is cell-based. On the technique in general: Reporter assays use an easily measured gene product as a stand-in for the process of interest.
Another data set has as its system Blood. The data set can be described thus: Antiinflammatory activity in human whole blood assessed as inhibition of IL-1-beta-stimulated IL6 production preincubated 2 hrs before IL1-beta challenge measured after 18 hrs by ELISA. In kind it is functional, tissue-based. In general terms: ELISA stands for enzyme-linked immunosorbent assay.
For the next data set, the system named is HeLa. The data set is described as follows: Stimulation of NF-kappaB-mediated gene transcription expressed in human HeLa cells for 30 mins before TNFalpha challenge measured after 8 hrs by steady-glo luciferase reporter gene assay. In kind it is cell-based.
Data set [2] in a line: Cytotoxicity against human 184B5 cells after 24 hrs by MTS assay. In kind it is cell-based.

Calls of active or inactive are those of the source. The calls are words filed in the database; no cut-off is given here.

Results on eleven molecules are retold here after ChEMBL document CHEMBL1138438, “Structural-activity relationship study of highly-functionalized imidazolines as potent inhibitors of nuclear transcription factor-kappaB mediated IL-6 production” (Bioorg Med Chem, 2009).

A word on the EC50: it is the concentration needed to bring the measured effect to its halfway point. A high value points to lower potency in that assay. Broadly, the IC50 is the concentration that gives 50% inhibition. By CC50 is commonly meant the concentration giving 50% cytotoxicity. A higher CC50 goes with lower toxicity to the cells.

In data set [1], `CCOC(=O)[C@]1(c2ccccc2)N=C(c2ccccc2)N(C(=O)c2ccccc2)[C@@H]1c1ccccc1` (racemic) yielded an EC50 of 24.9 µM. Moreover, the Activity result with Blood is “Dose-dependent effect”. The IC50 with Blood (read-out: IC50) is 6.6 µM; in the data set on Blood (read-out: Log IC50 (converted)), 6.61 µM. For the same molecule, in the data set on HeLa, the outcome was inactive. In data set [2], the 50% cytotoxic concentration (CC50) at 24 h is over 10 µM.
In data set [1], `CCOC(=O)[C@]1(c2ccccc2)N=C(c2ccccc2)N(Cc2ccccc2)[C@@H]1c1ccc(OC)cc1` (racemic) gave an EC50 of 3.6 µM. Further, in the data set with Blood, the Activity result is “Dose-dependent effect”. Further, the figures for the IC50 in the data set on Blood (read-out: IC50) and in the data set with Blood (read-out: Log IC50 (converted)) were 1.3 µM and 1.29 µM, respectively. For the same molecule, the outcome in the data set with HeLa was inactive. In data set [2], this molecule displayed a half-maximal cytotoxic concentration (CC50) at 24 h of over 10 µM.
The molecule `CCOC(=O)[C@]1(c2ccccc2)N=C(c2ccccc2)N(Cc2ccccc2)[C@@H]1c1ccc(F)cc1` (racemic) registered an EC50 in data set [1] of 5 µM. In addition, the Activity entry with Blood was “Dose-dependent effect”. Moreover, the IC50 with Blood (read-out: IC50) was 1 µM; in the data set with Blood (read-out: Log IC50 (converted)), 1.05 µM. In the data set on HeLa, the result was inactive. The same molecule gave a cytotoxic concentration (CC50) at 24 h in data set [2] of over 10 µM.
Turning to `NC(=O)[C@]1(c2ccccc2)N=C(c2ccccc2)N(Cc2ccccc2)[C@@H]1c1ccccc1` (racemic), in data set [1], the 50% effective concentration (EC50) is over 20 µM. In the data set with Blood, the Activity entry is “Dose-dependent effect”. The half-inhibitory concentration (IC50) in the data set with Blood (read-out: IC50) was over 20 µM; with Blood (read-out: Log IC50 (converted)), 46.8 µM. Further, the result with HeLa was inactive. Besides, in data set [2], the CC50 at 24 h is over 10 µM.
For the molecule `COC(=O)[C@]1(C(C)C)N=C(c2ccccc2)N(Cc2ccccc2)[C@@H]1c1ccccc1` (racemic), the half-maximal effective concentration (EC50) in data set [1] was 20 µM. Besides, in the data set with Blood, the Activity result is “Dose-dependent effect”. In addition, the IC50 in the data set with Blood (read-out: IC50) is 7.1 µM; in the data set with Blood (read-out: Log IC50 (converted)), 7.08 µM. In addition, in the data set on HeLa, the outcome was inactive. Besides, in data set [2], the CC50 at 24 h was over 10 µM.
Molecule `COC(=O)[C@]1(c2ccccc2)N=C(c2ccccc2)N(Cc2ccccc2)[C@@H]1c1ccccc1` (racemic) yielded a 50% effective concentration (EC50) in data set [1] of 7.5 µM. For the same molecule, in the data set on Blood, the Activity entry was “Dose-dependent effect”. Moreover, the values for the IC50 in the data set on Blood (read-out: IC50) and in the data set with Blood (read-out: Log IC50 (converted)) were 3 µM and 3.02 µM, respectively. The outcome with HeLa was inactive. This molecule also returned a cytotoxic concentration (CC50) at 24 h in data set [2] of over 10 µM.
As to `COC(=O)[C@]1(Cc2cc3ccccc3[nH]2)N=C(c2ccccc2)N(Cc2ccccc2)[C@@H]1c1ccccc1` (racemic), the 50% effective concentration (EC50) in data set [1] was determined as 13 µM. Also, in the data set on Blood, the Activity entry was “Dose-dependent effect”. Moreover, the values for the IC50 with Blood (read-out: IC50) and in the data set on Blood (read-out: Log IC50 (converted)) were 16.1 µM and 16.2 µM, respectively. The result in the data set on HeLa was inactive. Also, the CC50 at 24 h in data set [2] was over 10 µM.
Take `CCOC(=O)[C@]1(c2ccccc2)N=C(c2ccccc2)N(C(C)=O)[C@@H]1c1ccccc1` (racemic): the EC50 in data set [1] came to 168 µM. The Activity result with Blood is “Dose-dependent effect”. The IC50 with Blood (read-out: IC50) was over 20 µM. Also, in the data set with HeLa, the outcome was inactive. Moreover, the cytotoxic concentration (CC50) at 24 h in data set [2] is over 10 µM.
For `CCOC(=O)[C@]1(c2ccccc2)N=C(c2ccccc2)N(Cc2ccccc2)[C@@H]1c1ccc(Cl)cc1` (racemic), in data set [1], the EC50 is 1.5 µM. For the same molecule, the Activity entry in the data set on Blood was “Dose-dependent effect”. Besides, the IC50 with Blood (read-out: IC50) is 0.3 µM; in the data set on Blood (read-out: Log IC50 (converted)), 0.0617 µM. In addition, the outcome with HeLa was inactive. This molecule also registered a CC50 at 24 h in data set [2] of over 10 µM.
With `CCOC(=O)[C@]1(c2ccccc2)N=C(c2ccccc2)N(Cc2ccccc2)[C@@H]1c1ccco1` (racemic), the EC50 in data set [1] was found to be 7.6 µM. In addition, the Activity entry with Blood was “Dose-dependent effect”. Further, the IC50 in the data set with Blood (read-out: IC50) was 1.9 µM; in the data set with Blood (read-out: Log IC50 (converted)), 1.91 µM. The outcome in the data set with HeLa was inactive. In data set [2], this molecule returned a CC50 at 24 h of over 10 µM.
In data set [1], `CCOC(=O)[C@]1(c2ccccc2)N=C(c2ccccc2)N(Cc2ccc(C)cc2)[C@@H]1c1ccccc1` (racemic) came in with an EC50 of 1.7 µM. For the same molecule, the Activity result with Blood is “Dose-dependent effect”. The results for the IC50 in the data set on Blood (read-out: IC50) and with Blood (read-out: Log IC50 (converted)) were 4.6 µM and 4.57 µM, respectively. The outcome in the data set with HeLa was inactive. For the same molecule, the CC50 at 24 h in data set [2] is over 10 µM.
